# Source: ChEMBL document CHEMBL4364276, “Discovery of 4-phenyl-2H-benzo[b][1,4]oxazin-3(4H)-one derivatives as potent and orally active PI3K/mTOR dual inhibitors” (Eur J Med Chem, 2019)
# Tests used:
# [1] = molecular target: Tyrosine-protein kinase JAK3 (Homo sapiens) (UniProt P52333); experiment: Inhibition of human JAK3 at 100 nM using poly[Glu:Tyr] (4:1) as substrate by [gamma-33P]-ATP assay
# [2] = molecular target: Ephrin type-B receptor 2 (Homo sapiens) (UniProt P29323); experiment: Inhibition of human EPHB2 at 100 nM using poly[Glu:Tyr] (4:1) as substrate by [gamma-33P]-ATP assay
# [3] = molecular target: Mitogen-activated protein kinase kinase kinase 11 (Homo sapiens) (UniProt Q16584); experiment: Inhibition of human MLK3 at 100 nM using MBP as substrate by [gamma-33P]-ATP assay
# [4] = molecular target: Bone morphogenetic protein receptor type-1B (Homo sapiens) (UniProt O00238); experiment: Inhibition of human ALK6 at 100 nM using casein as substrate by [gamma-33P]-ATP assay
# Sequence of Bone morphogenetic protein receptor type-1B (Homo sapiens) (O00238 whole entry): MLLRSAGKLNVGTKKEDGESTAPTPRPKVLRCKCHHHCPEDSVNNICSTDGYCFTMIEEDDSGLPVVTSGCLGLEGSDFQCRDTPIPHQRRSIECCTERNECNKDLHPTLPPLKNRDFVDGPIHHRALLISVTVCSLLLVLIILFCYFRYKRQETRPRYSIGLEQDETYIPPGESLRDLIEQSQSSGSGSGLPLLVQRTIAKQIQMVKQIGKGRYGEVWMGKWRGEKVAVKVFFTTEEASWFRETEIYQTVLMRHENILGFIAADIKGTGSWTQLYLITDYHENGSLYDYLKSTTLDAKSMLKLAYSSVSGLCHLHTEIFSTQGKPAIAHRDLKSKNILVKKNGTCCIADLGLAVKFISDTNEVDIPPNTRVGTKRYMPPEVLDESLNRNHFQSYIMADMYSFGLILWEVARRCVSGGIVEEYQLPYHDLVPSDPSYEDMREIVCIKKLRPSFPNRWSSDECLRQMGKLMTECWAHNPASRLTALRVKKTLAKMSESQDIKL
# [5] = molecular target: Myosin light chain kinase, smooth muscle (Homo sapiens) (UniProt Q15746); experiment: Inhibition of human MLCK at 100 nM using KKLNRTLSFAEPG as substrate by [gamma-33P]-ATP assay
# [6] = molecular target: Casein kinase II subunit alpha' (Homo sapiens) (UniProt P19784); experiment: Inhibition of human CK2A2 at 100 nM using RRRDDDSDDD as substrate by [gamma-33P]-ATP assay
# [7] = molecular target: Interleukin-1 receptor-associated kinase 1 (Homo sapiens) (UniProt P51617); experiment: Inhibition of human IRAK1 at 100 nM using MBP as substrate by [gamma-33P]-ATP assay
# [8] = molecular target: G protein-coupled receptor kinase 5 (Homo sapiens) (UniProt P34947); experiment: Inhibition of human GRK5 at 100 nM using casein as substrate by [gamma-33P]-ATP assay
# [9] = molecular target: Serine/threonine-protein kinase Chk1 (Homo sapiens) (UniProt O14757); experiment: Inhibition of human CHK1 at 100 nM using KKKVSRSGLYRSPSMPENLNRPR as substrate by [gamma-33P]-ATP assay
# Sequence of Serine/threonine-protein kinase Chk1 (Homo sapiens) (O14757 whole entry): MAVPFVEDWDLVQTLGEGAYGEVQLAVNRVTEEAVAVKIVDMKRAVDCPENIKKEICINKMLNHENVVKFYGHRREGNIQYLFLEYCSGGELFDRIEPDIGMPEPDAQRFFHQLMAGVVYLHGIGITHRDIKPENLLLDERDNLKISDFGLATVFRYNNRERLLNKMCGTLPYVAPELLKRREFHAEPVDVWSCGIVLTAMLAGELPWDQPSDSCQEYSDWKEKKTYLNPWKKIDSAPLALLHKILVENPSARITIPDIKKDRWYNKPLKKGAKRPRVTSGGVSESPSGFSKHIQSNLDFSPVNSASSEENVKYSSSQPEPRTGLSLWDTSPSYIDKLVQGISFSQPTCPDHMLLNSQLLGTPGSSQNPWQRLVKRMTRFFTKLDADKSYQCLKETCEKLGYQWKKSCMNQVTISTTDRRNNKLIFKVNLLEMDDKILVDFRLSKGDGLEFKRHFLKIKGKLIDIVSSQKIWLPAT
# [10] = molecular target: NUAK family SNF1-like kinase 1 (Homo sapiens) (UniProt O60285); experiment: Inhibition of human ARK5 at 100 nM using KKKVSRSGLYRSPSMPENLNRPR as substrate by [gamma-33P]-ATP assay
# [11] = molecular target: Phosphorylase b kinase gamma catalytic chain, liver/testis isoform (Homo sapiens) (UniProt P15735); experiment: Inhibition of human PHKgamma2 at 100 nM using MBP as substrate by [gamma-33P]-ATP assay
# [12] = molecular target: CDC7/DBF4 (Cell division cycle 7-related protein kinase/Activator of S phase kinase) (Homo sapiens) (UniProt Q9UBU7+O00311); experiment: Inhibition of human CDC7/DBF4 at 100 nM using KTFCGTPEYLAPEVRREPRILSEEEQEMFRDFDYIADWC as substrate by [gamma-33P]-ATP assay; format: protein-complex assay
# [13] = molecular target: 3-phosphoinositide-dependent protein kinase 1 (Homo sapiens) (UniProt O15530); experiment: Inhibition of human PDK1/PDPk1 at 100 nM using [KTFCGTPEYLAPEVRREPRILSEEEQEMFRDFDYIADWC as substrate by [gamma-33P]-ATP assay
# Sequence of 3-phosphoinositide-dependent protein kinase 1 (Homo sapiens) (O15530 whole entry): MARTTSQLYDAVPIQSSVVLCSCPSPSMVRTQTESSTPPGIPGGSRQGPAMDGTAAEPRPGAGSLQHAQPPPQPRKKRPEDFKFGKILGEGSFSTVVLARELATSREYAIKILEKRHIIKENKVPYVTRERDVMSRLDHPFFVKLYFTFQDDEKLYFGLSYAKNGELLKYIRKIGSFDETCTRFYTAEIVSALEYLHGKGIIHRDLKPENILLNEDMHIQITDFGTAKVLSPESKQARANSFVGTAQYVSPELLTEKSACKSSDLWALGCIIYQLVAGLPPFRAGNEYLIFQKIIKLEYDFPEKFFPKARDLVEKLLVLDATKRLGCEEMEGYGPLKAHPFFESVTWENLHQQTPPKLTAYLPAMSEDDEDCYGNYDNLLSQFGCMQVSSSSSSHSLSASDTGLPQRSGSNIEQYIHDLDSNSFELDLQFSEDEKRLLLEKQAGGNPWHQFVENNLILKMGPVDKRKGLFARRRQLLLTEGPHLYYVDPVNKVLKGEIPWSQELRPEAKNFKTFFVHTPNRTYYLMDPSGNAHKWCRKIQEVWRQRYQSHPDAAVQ
# [14] = molecular target: Myosin light chain kinase (Homo sapiens) (UniProt Q32MK0); experiment: Inhibition of human MYLK3 at 100 nM using KKRPQRRYSNVF as substrate by [gamma-33P]-ATP assay
# [15] = molecular target: Protein kinase C zeta type (Homo sapiens) (UniProt Q05513); experiment: Inhibition of human PKCzeta at 100 nM using ERMRPRKRQGSVRRRV as substrate by [gamma-33P]-ATP assay
# [16] = Half life in Sprague-Dawley rat at 10 mg/kg, po measured upto 24 hrs by LC-MS/MS analysis; format: ADME, organism-based; details: in vivo
# [17] = species: Homo sapiens; experiment: Inhibition of human AMPK (A2/B2/G3) at 100 nM using HMRSAMSGLHLVKRR as substrate by [gamma-33P]-ATP assay
# [18] = molecular target: BDNF/NT-3 growth factors receptor (Homo sapiens) (UniProt Q16620); experiment: Inhibition of human TRKB at 100 nM using poly[Glu:Tyr] (4:1) as substrate by [gamma-33P]-ATP assay
# [19] = molecular target: Epidermal growth factor receptor (Homo sapiens) (UniProt P00533); experiment: Inhibition of human EGFR at 100 nM using poly[Glu:Tyr] (4:1) as substrate by [gamma-33P]-ATP assay
# [20] = molecular target: Mitogen-activated protein kinase 9 (Homo sapiens) (UniProt P45984); experiment: Inhibition of human JNK2 at 100 nM using ATF2 as substrate by [gamma-33P]-ATP assay
# [21] = molecular target: Myosin light chain kinase 2, skeletal/cardiac muscle (Homo sapiens) (UniProt Q9H1R3); experiment: Inhibition of human MLCK2 at 100 nM using KKLNRTLSFAEPG as substrate by [gamma-33P]-ATP assay
# [22] = molecular target: Activin receptor type-1-like (Homo sapiens) (UniProt P37023); experiment: Inhibition of human ALK1 at 100 nM using casein as substrate by [gamma-33P]-ATP assay
# Sequence of Activin receptor type-1-like (Homo sapiens) (P37023 whole entry): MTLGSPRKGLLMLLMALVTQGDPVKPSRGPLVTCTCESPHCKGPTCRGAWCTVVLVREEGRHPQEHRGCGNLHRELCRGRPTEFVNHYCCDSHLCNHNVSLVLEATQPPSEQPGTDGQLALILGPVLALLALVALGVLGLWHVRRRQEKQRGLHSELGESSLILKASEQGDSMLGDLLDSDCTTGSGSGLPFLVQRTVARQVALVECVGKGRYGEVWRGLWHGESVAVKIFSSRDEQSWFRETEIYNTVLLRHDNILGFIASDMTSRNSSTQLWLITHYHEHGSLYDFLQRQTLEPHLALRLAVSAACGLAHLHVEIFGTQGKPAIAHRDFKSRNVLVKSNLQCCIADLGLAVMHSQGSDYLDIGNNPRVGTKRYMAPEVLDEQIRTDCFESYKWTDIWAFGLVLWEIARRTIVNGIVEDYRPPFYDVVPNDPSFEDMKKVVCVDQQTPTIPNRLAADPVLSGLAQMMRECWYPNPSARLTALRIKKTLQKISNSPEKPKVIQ
# [23] = molecular target: Tyrosine-protein kinase HCK (Homo sapiens) (UniProt P08631); experiment: Inhibition of human HCK at 100 nM using KVEKIGEGTYGVVYK as substrate by [gamma-33P]-ATP assay
# [24] = molecular target: Serine/threonine-protein kinase NLK (Homo sapiens) (UniProt Q9UBE8); experiment: Inhibition of human NLK at 100 nM using MBP as substrate by [gamma-33P]-ATP assay
# Sequence of Serine/threonine-protein kinase NLK (Homo sapiens) (Q9UBE8 whole entry): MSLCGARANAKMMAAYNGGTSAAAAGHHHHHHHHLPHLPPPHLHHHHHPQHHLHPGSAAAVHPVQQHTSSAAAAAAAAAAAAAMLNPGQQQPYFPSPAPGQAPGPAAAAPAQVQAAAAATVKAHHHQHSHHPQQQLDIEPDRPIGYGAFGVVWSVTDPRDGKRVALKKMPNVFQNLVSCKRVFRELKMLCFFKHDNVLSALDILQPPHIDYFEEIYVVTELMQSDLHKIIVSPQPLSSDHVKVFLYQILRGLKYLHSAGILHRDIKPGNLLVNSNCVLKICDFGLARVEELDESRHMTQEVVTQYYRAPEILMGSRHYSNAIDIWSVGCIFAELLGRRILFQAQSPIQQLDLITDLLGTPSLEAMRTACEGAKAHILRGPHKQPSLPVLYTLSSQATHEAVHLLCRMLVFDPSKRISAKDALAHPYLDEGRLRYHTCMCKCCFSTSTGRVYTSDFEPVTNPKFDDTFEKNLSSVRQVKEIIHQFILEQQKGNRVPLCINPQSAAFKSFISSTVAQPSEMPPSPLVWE
# [25] = molecular target: STE20-like serine/threonine-protein kinase (Homo sapiens) (UniProt Q9H2G2); experiment: Inhibition of human SLK at 100 nM using Histone H3 as substrate by [gamma-33P]-ATP assay
# Sequence of STE20-like serine/threonine-protein kinase (Homo sapiens) (Q9H2G2 whole entry, looked up): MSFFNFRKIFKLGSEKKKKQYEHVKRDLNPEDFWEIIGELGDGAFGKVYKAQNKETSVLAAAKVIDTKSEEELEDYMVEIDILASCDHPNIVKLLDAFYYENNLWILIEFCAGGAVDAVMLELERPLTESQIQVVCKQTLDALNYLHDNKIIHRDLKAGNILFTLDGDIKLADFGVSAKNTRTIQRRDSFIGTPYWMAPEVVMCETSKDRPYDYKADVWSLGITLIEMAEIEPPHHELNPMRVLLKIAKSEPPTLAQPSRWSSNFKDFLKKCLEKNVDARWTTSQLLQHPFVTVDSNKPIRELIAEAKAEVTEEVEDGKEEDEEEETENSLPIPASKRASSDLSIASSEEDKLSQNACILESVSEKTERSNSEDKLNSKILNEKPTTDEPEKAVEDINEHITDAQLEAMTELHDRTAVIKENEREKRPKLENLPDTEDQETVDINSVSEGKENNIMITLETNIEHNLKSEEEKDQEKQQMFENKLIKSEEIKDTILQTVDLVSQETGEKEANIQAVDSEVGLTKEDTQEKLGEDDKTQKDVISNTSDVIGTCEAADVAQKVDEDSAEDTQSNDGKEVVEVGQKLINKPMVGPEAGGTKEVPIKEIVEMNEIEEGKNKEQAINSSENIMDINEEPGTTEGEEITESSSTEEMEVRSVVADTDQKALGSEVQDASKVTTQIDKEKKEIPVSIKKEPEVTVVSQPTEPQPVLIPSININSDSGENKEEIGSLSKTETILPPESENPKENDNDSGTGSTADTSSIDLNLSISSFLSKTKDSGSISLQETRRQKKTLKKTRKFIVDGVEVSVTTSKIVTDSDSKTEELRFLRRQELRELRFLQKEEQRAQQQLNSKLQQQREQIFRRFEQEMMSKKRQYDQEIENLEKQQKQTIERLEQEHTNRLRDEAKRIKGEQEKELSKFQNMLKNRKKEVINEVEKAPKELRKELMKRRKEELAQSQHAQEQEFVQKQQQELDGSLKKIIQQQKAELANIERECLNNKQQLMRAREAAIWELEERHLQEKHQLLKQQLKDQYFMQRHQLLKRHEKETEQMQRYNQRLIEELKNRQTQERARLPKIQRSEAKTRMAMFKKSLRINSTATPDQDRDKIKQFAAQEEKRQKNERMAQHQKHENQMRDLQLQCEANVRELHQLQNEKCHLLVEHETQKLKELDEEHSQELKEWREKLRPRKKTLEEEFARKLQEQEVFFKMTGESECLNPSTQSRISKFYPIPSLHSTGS
# [26] = molecular target: Calcium/calmodulin-dependent protein kinase type 1D (Homo sapiens) (UniProt Q8IU85); experiment: Inhibition of human CAMK1D at 100 nM using KKALRRQETVDAL as substrate by [gamma-33P]-ATP assay
# [27] = molecular target: Proto-oncogene tyrosine-protein kinase ROS (Homo sapiens) (UniProt P08922); experiment: Inhibition of human ROS at 100 nM using KKKSPGEYVNIEFG as substrate by [gamma-33P]-ATP assay
# [28] = molecular target: Serine/threonine-protein kinase N1 (Homo sapiens) (UniProt Q16512); experiment: Inhibition of human PKN1 at 100 nM using KKLNRTLSVA as substrate by [gamma-33P]-ATP assay
# [29] = molecular target: Protein-tyrosine kinase 2-beta (Homo sapiens) (UniProt Q14289); experiment: Inhibition of human PYK2 at 100 nM using poly[Glu:Tyr] (4:1) as substrate by [gamma-33P]-ATP assay
# [30] = molecular target: Dual specificity protein kinase CLK1 (Homo sapiens) (UniProt P49759); experiment: Inhibition of human CLK1 at 100 nM using MBP as substrate by [gamma-33P]-ATP assay
# Sequence of Tyrosine-protein kinase JAK3 (Homo sapiens) (P52333 whole entry): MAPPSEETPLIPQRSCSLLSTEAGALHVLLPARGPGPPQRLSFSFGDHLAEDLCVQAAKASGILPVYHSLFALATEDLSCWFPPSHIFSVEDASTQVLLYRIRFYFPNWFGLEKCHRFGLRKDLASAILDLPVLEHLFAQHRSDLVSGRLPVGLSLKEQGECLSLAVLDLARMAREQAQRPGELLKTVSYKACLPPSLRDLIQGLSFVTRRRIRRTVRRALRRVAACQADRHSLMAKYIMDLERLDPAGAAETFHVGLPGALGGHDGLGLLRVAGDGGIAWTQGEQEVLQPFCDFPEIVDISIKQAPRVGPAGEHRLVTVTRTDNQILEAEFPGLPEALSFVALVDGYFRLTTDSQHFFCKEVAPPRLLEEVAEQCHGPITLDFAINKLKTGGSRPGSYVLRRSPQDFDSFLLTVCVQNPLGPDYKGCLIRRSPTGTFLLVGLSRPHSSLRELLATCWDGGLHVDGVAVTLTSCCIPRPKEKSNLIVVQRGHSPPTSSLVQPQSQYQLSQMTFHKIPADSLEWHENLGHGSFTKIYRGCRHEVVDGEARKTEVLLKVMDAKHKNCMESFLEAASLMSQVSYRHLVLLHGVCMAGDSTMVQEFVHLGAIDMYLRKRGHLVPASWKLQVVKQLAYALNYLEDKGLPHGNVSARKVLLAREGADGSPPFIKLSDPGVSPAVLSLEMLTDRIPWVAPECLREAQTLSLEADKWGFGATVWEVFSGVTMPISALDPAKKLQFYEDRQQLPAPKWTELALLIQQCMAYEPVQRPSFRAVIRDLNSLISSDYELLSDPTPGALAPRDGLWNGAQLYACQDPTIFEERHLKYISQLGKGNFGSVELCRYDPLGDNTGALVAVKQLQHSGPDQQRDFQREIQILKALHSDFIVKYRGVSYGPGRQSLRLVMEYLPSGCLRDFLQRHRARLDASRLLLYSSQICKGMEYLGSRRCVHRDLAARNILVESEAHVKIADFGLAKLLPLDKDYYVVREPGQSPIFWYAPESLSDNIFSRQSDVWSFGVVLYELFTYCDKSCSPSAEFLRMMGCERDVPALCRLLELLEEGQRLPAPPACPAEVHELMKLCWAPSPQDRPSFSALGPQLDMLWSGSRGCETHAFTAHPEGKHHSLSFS
compound,measurement,setting,value
COc1ccc(N2C(=O)COc3ccc(-c4cnc(OC)c(NS(=O)(=O)c5ccc(F)cc5)c4)cc32)cc1,inhibition,[1],-4.79%
same,inhibition,[2],-6.07%
same,inhibition,[3],3.29%
same,inhibition,[4],2.39%
same,inhibition,[5],7.23%
same,inhibition,[6],19.8%
same,inhibition,[7],-5.22%
same,inhibition,[8],-0.54%
same,inhibition,[9],5.54%
same,inhibition,[10],0.26%
same,inhibition,[11],20%
same,inhibition,[12],8.12%
same,inhibition,[13],-3.45%
same,inhibition,[14],3.77%
same,inhibition,[15],8.59%
same,half-life,[16],1.78 h
same,inhibition,[17],5.47%
same,inhibition,[18],-0.11%
same,inhibition,[19],8.4%
same,inhibition,[20],22.4%
same,inhibition,[21],0.61%
same,inhibition,[22],-8.35%
same,inhibition,[23],7.23%
same,inhibition,[24],10.8%
same,inhibition,[25],-0.32%
same,inhibition,[26],0%
same,inhibition,[27],15.3%
same,inhibition,[28],16.8%
same,inhibition,[29],6.22%
same,inhibition,[30],7.77%
